Results published in patent publication US12559506B2, “Indazole based compounds and associated methods of use” (Arvinas Operations, Inc., priority 2021, dated 2026).
Like-named read-outs stand apart in the source and are kept apart here.

Biological target: T1, LRRK2 (endogenous, HiBit tagged) (Homo sapiens, UniProt Q5S007)
T1 construct: endogenous in cells; host or cells: HEK293 cells with HiBit knock-in at the endogenous LRRK2 locus, stably expressing firefly luciferase
Test: Endogenous LRRK2 degradation assay, endogenous gene C-terminally HiBit-tagged in HEK293 cells (Nano-Glo Dual Luciferase)
Type: cell-based
Description: Exemplary Assay for Testing LRRK2 Degradation Driven by Exemplary Hetero-Bifunctional Compounds Designed to Target LRRK2
The assay measures the degradation of LRRK2 in cells where the C-terminus (3′) of the endogenous gene has been tagged with a HiBit sequence in HEK293 cells. The cells also express firefly luciferase, expressed from a Cytomegalovirus promoter and introduced into the HiBit tagged cells and stably expressed. The Nano-Glo® Dual Luciferase Reporter Assay System (Promega™, Madison, WI) was utilized.
Day 1—Preparation of Compound and Assay Plates. Two sets of plates were prepared: a triplicate set for the HiBit assay in white 384-well plates and a triplicate set of plate in black 384-well plates for the Alamar Blue cell viability assay. Briefly, the growth media (DMEM+Glutamax-10% fetal bovine serum-1% Penicillin-Streptomicin) from two T128 flasks was aspirated from the flasks. Cells were washed with Dulbecco's Phosphate Buffered Saline (dPBS) and aspirated. Trypsin (3 mL per flask) was added and the flasks were incubated for 2-3 minutes.
Ten mL of OptiMEM-10% fetal bovine-1% penicillin-streptomycin (hereinafter, “OptiMEM media”) was added to the flask and the cells and transferred to a 50 mL conical tube. A cell count (25 ul of cell into Effendorf vial+25 ul of Trypan Blue Stain) was performed and the cell density adjusted to 15,000 cell/45 μl/well (3.33×10^5/mL) in OptiMEM media.
Fourty-five microliters of the cell suspension (15,000 cells) was aliquoted to each well of the white 384-well plate. The plates incubated at room temperature for 10 minutes before being placed in the 37° C.+5% CO2 incubator overnight
Day 2—Compound Treatment. Exemplary compounds were prepared at a 1 mM starting concentration and 1:3 serial dilution for 11 points CRC prepared and stored in the freezer. The Master Compound Plate was thawed overnight at room temperature. DMSO (20 μL) was added into column 24 of the Master Compound Plate for negative control and 20 μL of 300 μM of Compound 4 in column 23 as positive control.
Intermediate Compound Plate with 4% DMSO in OptiMEM Media. DMSO was added to warm OptiMEM media to achieve a 4% DMSO solution (approximately 50 mL/plate). One-hundred microliters of the OptiMEM-4% DMSO was aliquoted to each well of 384-Well Deep Well Microplates.
The Master Compound Plate and the Intermediate Compound Plate were spun down.
One microliter of compound from the Master Compound Plate was transferred into the Intermediate plate (a 1:100 dilution). The diluted mixture was mixed and 5 μL transferred into the assay plate (a 1:10 dilution) for the final starting concentration of 1 μM. The Treated Assay plates were incubated for 24 hours at 37° C.+5% CO2. The Master Compound Plate was sealed and store at room temperature for a second run that was performed within a week.
Day 3—HiBit Assay. Five microliters of Alamar Blue was added to each well of the black 384-well plates. The plates were incubated for 2 hours in the incubator (37° C.+5% CO2) and at room temperature for one hour. Fluorescence of each plate was read on a plated reader for the Alamar Blue viability assay.
One set of white assay plates was warmed to room temperature (45 minute).
The One Glo luciferase mixture was prepared. The media from white 384-well assay plates was aspirated. Twenty-five μL of the One Glo luciferase mixture was added to each well of the assay plates. The plates were incubated on the bench (room temperature) for 45 minutes, including 10 minutes of shaking at 700 rpm. The luminescence of each plate was read on a plate reader.
1:100 DLR substrate and 1:100 LgBiT Protein dilution were added to the Promega Stop and Glo buffer and mixed just before addition to assay plates. Twenty-five microliters of Stop and Glo mixture was added to each well. Assay plates incubated for at least 45 minutes, including 10 minutes of shaking at 700 rpm. The luminescence of each plate was read on a plate reader.
Analysis of LRRK2 HiBit Screening assays. […]

[1] = endogenous HiBit-tagged LRRK2 in HEK293 cells, 24 hours treatment, read-out: Endogenous WT DC50
[2] = endogenous HiBit-tagged LRRK2 in HEK293 cells, 24 hours treatment, read-out: Endogenous WT Dmax
[3] = endogenous HiBit-tagged LRRK2 in HEK293 cells, 24 hours treatment, read-out: *Endogenous WT DC50
[4] = endogenous HiBit-tagged LRRK2 in HEK293 cells, 24 hours treatment, read-out: **Endogenous WT Dmax (%)
[5] = endogenous HiBit-tagged LRRK2, HEK293 cells, 24 hours, read-out: **Endogenous WT Dmax (%)
[6] = endogenous HiBit-tagged LRRK2, HEK293 cells, 24 hours, read-out: *Endogenous WT DC50

T1 sequence (Q5S007 whole entry): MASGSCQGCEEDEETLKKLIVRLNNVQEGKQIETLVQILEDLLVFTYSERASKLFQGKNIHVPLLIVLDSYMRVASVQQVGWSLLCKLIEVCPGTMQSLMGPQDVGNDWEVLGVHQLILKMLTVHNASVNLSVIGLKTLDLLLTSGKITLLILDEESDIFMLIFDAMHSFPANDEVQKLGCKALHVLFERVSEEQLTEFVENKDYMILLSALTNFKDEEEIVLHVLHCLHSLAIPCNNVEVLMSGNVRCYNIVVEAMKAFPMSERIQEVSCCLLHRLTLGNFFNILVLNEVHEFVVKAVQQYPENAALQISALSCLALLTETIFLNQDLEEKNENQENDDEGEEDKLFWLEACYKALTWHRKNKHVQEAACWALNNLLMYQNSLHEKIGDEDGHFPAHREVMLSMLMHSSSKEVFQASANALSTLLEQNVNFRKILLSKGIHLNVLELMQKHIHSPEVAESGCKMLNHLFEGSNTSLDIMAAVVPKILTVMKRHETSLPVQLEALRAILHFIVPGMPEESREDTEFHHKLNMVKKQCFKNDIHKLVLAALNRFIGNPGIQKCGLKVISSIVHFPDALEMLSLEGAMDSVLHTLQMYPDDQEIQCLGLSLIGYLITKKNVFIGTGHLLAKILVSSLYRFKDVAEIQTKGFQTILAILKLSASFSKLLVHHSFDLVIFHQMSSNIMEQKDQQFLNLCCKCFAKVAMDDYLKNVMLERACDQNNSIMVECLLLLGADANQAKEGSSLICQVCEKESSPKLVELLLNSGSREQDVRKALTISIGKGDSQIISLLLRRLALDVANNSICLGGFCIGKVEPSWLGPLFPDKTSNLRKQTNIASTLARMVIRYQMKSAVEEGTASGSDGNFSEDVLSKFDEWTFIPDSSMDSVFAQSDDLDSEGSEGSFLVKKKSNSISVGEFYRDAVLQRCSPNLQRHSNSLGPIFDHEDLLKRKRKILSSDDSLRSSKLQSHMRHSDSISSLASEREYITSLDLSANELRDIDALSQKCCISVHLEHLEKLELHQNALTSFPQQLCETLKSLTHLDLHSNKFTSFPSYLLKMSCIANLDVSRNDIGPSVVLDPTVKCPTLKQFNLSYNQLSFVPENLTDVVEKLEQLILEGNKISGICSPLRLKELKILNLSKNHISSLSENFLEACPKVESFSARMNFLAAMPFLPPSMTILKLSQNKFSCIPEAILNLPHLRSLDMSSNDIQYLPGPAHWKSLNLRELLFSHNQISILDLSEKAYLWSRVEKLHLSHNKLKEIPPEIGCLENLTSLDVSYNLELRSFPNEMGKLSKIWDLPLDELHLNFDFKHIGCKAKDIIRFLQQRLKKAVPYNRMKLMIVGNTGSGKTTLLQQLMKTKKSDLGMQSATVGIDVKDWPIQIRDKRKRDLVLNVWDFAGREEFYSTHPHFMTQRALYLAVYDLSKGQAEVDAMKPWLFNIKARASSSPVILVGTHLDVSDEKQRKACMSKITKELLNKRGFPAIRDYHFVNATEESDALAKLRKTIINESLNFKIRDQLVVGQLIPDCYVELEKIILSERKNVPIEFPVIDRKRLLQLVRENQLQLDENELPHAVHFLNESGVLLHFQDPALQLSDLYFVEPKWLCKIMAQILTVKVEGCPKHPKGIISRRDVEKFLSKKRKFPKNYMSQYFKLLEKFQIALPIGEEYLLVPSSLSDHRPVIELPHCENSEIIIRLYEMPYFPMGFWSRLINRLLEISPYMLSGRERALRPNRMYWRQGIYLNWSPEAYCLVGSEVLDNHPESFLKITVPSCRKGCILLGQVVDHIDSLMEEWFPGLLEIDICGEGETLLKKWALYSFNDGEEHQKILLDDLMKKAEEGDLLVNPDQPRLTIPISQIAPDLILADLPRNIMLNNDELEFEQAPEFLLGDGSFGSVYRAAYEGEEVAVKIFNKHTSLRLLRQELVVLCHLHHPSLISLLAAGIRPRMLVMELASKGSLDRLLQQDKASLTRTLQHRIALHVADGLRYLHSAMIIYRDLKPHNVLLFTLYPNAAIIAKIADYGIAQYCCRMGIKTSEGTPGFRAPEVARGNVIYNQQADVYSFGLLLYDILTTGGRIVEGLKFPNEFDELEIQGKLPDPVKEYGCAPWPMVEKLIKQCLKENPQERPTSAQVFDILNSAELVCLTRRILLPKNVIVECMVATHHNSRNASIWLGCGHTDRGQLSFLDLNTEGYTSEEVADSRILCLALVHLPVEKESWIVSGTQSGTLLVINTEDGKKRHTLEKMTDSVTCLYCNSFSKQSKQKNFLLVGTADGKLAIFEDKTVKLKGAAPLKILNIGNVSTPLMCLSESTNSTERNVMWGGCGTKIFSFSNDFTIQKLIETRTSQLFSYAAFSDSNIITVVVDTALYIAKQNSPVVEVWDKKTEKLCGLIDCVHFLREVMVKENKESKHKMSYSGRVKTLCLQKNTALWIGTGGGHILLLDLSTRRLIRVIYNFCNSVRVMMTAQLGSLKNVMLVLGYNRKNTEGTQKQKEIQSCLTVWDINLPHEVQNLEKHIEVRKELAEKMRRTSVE

DC50 [1] [nM]	Dmax [2] [%]	DC50 [3] [nM]	Dmax [4] [%]	SMILES	also measured
< 10	50 to 70			COc1c(N2CCC(CN3CCC(F)(CN4CCN(c5cc(-c6n[nH]c7ccc(OC8(C)CC8)cc67)ncn5)CC4)CC3)CC2)ccc2c1CN(C1CCC(=O)NC1=O)C2=O (stereo not shown) [Compound 212, 3-[5-[4-[[4-fluoro-4-[[4-[6-[5-(1-methylcyclopropoxy)-1H-indazol-3-yl]pyrimidin-4-yl]piperazin-1-yl]methyl]-1-piperidyl]methyl]-1-piperidyl]-4-methoxy-1-oxo-isoindolin-2-yl]piperidine-2,6-dione]	
		< 10	50 to 70	C[C@H]1CN(CC2(F)CCN(CC3CCN(c4cc(-c5n[nH]c6ccc(OC7(C)CC7)cc56)ncn4)CC3)CC2)CCN1c1ccc2c(c1F)CN(C1CCC(=O)NC1=O)C2=O (stereo partly drawn) [Compound 355, 3-{4-fluoro-5-[(2S)-4-({4-fluoro-1-[(1-{6-[5-(1-methylcyclopropoxy)-1H-indazol-3-yl]pyrimidin-4-yl}piperidin-4-yl)methyl]piperidin-4-yl}methyl)-2-methylpiperazin-1-yl]-1-oxo-2,3-dihydro-1H-isoindol-2-yl}piperidine-2,6-dione]	
		< 10	50 to 70	CC1(Oc2cc3c(-c4cc(N5CCN(C[C@@H]6CCN(CC7CCN(c8ccc9c(c8F)CN(C8CCC(=O)NC8=O)C9=O)CC7)C[C@@H]6F)CC5)ncn4)n[nH]c3cc2F)CC1 (stereo partly shown) [Compound 299, 3-[4-fluoro-5-(4-{[(3r,4s)-3-fluoro-4-[(4-{6-[6-fluoro-5-(1-methylcyclopropoxy)-1H-indazol-3-yl]pyrimidin-4-yl}piperazin-1-yl)methyl]piperidin-1-yl]methyl}piperidin-1-yl)-1-oxo-2,3-dihydro-1H-isoindol-2-yl]piperidine-2,6-dione]	
< 10	50 to 70			CC1(Oc2cc3c(-c4cc(N5CCC(CN6CCN(CC7(F)CCN(c8ccc9c(c8F)CN(C8CCC(=O)NC8=O)C9=O)CC7)CC6)CC5)ncn4)[nH]nc3cc2F)CC1 (stereo not shown) [Compound 229, 3-{4-fluoro-5-[4-fluoro-4-({4-[(1-{6-[6-fluoro-5-(1-methylcyclopropoxy)-2H-indazol-3-yl]pyrimidin-4-yl}piperidin-4-yl)methyl]piperazin-1-yl}methyl)piperidin-1-yl]-1-oxo-2,3-dihydro-1H-isoindol-2-yl}piperidine-2,6-dione]	

More lines, now with the values behind:

SMILES	DC50 [1] [nM]	Dmax [2] [%]	DC50 [3] [nM]	Dmax [4] [%]	also measured
COc1c(N2CCC(CN3CCN(CC4CCN(c5cc(-c6n[nH]c7cnc(OC8(C)CC8)cc67)ncn5)CC4)C[C@H]3C)CC2)ccc2c1CN(C1CCC(=O)NC1=O)C2=O (stereo partly drawn) [Compound 324, 3-[4-methoxy-5-(4-{[(2R)-2-methyl-4-[(1-{6-[5-(1-methylcyclopropoxy)-1H-pyrazolo[3,4-c]pyridin-3-yl]pyrimidin-4-yl}piperidin-4-yl)methyl]piperazin-1-yl]methyl}piperidin-1-yl)-1-oxo-2,3-dihydro-1H-isoindol-2-yl]piperidine-2,6-dione]			< 10		
COc1c(N2CCC(CN3CCN(CC4CCN(c5cc(-c6n[nH]c7ccc(OC8(C)CC8)cc67)ncn5)CC4)[C@@H](C)C3)CC2)ccc2c1CN(C1CCC(=O)NC1=O)C2=O (stereo partly drawn) [Compound 256, 3-[4-methoxy-5-(4-{[(3S)-3-methyl-4-[(1-{6-[5-(1-methylcyclopropoxy)-1H-indazol-3-yl]pyrimidin-4-yl}piperidin-4-yl)methyl]piperazin-1-yl]methyl}piperidin-1-yl)-1-oxo-2,3-dihydro-1H-isoindol-2-yl]piperidine-2,6-dione]	< 10	50 to 70			
COc1c(N2CCC(CN3CCN(CC4CCN(c5cc(-c6n[nH]c7cc(F)c(OC8(C)CC8)cc67)ncn5)CC4)C(C)(C)C3)CC2)ccc2c1CN(C1CCC(=O)NC1=O)C2=O (stereo not shown) [Compound 278, 3-{5-[4-({4-[(1-{6-[6-fluoro-5-(1-methylcyclopropoxy)-1H-indazol-3-yl]pyrimidin-4-yl}piperidin-4-yl)methyl]-3,3-dimethylpiperazin-1-yl}methyl)piperidin-1-yl]-4-methoxy-1-oxo-2,3-dihydro-1H-isoindol-2-yl}piperidine-2,6-dione]			< 10	50 to 70	
CC1(Oc2ccc3[nH]nc(-c4cc(N5CCC(CN6CCN(CC7CCN(c8cc9c(cc8F)C(=O)N(C8CCC(=O)NC8=O)C9)CC7)CC6)CC5)ncn4)c3c2)CC1 (stereo not shown) [Compound 180, 3-[6-fluoro-5-[4-[[4-[[1-[6-[5-(1-methylcyclopropoxy)-1H-indazol-3-yl]pyrimidin-4-yl]-4-piperidyl]methyl]piperazin-1-yl]methyl]-1-piperidyl]-1-oxo-isoindolin-2-yl]piperidine-2,6-dione]					Dmax [5]: ≥ 70%; DC50 [6]: < 10 nM
CC1(Oc2ccc3[nH]nc(-c4cc(N5CCC(O[C@H]6CC[C@H](CN7CCN(c8ccc9c(c8F)CN(C8CCC(=O)NC8=O)C9=O)CC7(C)C)CC6)CC5)ncn4)c3c2)CC1 (stereo partly shown) [Compound 361, 3-[5-(3,3-dimethyl-4-{[(1r,4r)-4-[(1-{6-[5-(1-methylcyclopropoxy)-1H-indazol-3-yl]pyrimidin-4-yl}piperidin-4-yl)oxy]cyclohexyl]methyl}piperazin-1-yl)-4-fluoro-1-oxo-2,3-dihydro-1H-isoindol-2-yl]piperidine-2,6-dione]	< 10	50 to 70			
CC1(Oc2cc3c(-c4cc(N5CCN(CC6(F)CCN(CC7CCN(c8ccc9c(c8F)CN(C8CCC(=O)NC8=O)C9=O)CC7)CC6)CC5)ncn4)n[nH]c3cc2F)CC1 (stereo not shown) [Compound 189, 3-[4-fluoro-5-[4-[[4-fluoro-4-[[4-[6-[6-fluoro-5-(1-methylcyclopropoxy)-1H-indazol-3-yl]pyrimidin-4-yl]piperazin-1-yl]methyl]-1-piperidyl]methyl]-1-piperidyl]-1-oxo-isoindolin-2-yl]piperidine-2,6-dione]					Dmax [5]: ≥ 70%; DC50 [6]: < 10 nM
CC1(Oc2ccc3[nH]nc(-c4cc(N5CCC(CN6CC[C@H](OC7CCN(c8ccc9c(c8F)CN(C8CCC(=O)NC8=O)C9=O)CC7)CC6(C)C)CC5)ncn4)c3c2)CC1 (stereo partly drawn) [Compound 313, 3-[5-(4-{[(4S)-2,2-dimethyl-1-[(1-{6-[5-(1-methylcyclopropoxy)-1H-indazol-3-yl]pyrimidin-4-yl}piperidin-4-yl)methyl]piperidin-4-yl]oxy}piperidin-1-yl)-4-fluoro-1-oxo-2,3-dihydro-1H-isoindol-2-yl]piperidine-2,6-dione]			< 10	50 to 70	
COc1c(N2CCN(C[C@H]3CC[C@H](CN4CCN(c5cc(-c6n[nH]c7cnc(OC8(C)CC8)cc67)ncn5)CC4)CC3)CC2)ccc2c1CN(C1CCC(=O)NC1=O)C2=O (stereo partly shown) [Compound 261, 3-[4-methoxy-1-oxo-5-(4-{[(1r,4r)-4-[(4-{6-[5-(1-methylcyclopropoxy)-1H-pyrazolo[3,4-c]pyridin-3-yl]pyrimidin-4-yl}piperazin-1-yl)methyl]cyclohexyl]methyl}piperazin-1-yl)-2,3-dihydro-1H-isoindol-2-yl]piperidine-2,6-dione]			< 10	50 to 70	
CC1(Oc2ccc3[nH]nc(-c4cc(N5CCN(C[C@@H]6CC[C@@H](CN7CCN(c8ccc9c(c8F)CN(C8CCC(=O)NC8=O)C9=O)CC7)OC6)CC5)ncn4)c3c2)CC1 (single isomer, unassigned) [Compound 305]			< 10	50 to 70	
